Test system: plants
Experiment: Test D pre-emergence, other plants of Tables D1 and D3
Type: in vivo
Conditions: preemergent, 20 DAA
Experimental: A formulation containing 50 g/L of the test chemical was prepared by dissolving the active ingredient in a mixture of organic solvents and emulsifier, details of which are provided in the table. This formulation was then mixed with a small, variable amount of acetone to aid dissolution, before addition of a 0.2% v/v aqueous solution of an adjuvant, as the aqueous diluent, to form an aqueous spray solution which contains a predetermined concentration of the active ingredient.
This aqueous spray solution was then sprayed onto plants including maize and wheat that had been seed treated with a herbicide safener, after one day's cultivation (for pre-emergence) or after about 12 days' cultivation (for post-emergence). The plants were grown from seeds sown in standard soil, placed in a glasshouse under controlled conditions (at 24/18° C. or 20/16° C., day/night; 16 h light; 65% humidity). After spray application the plants were then grown in a glasshouse under the same conditions and watered twice daily. After 15 d for post-emergence and 20 DAA for pre-emergence the test was evaluated (100=total damage to plant; 0=no damage to plant).

CCn1nc([C@H]2CN(C)C(=O)[C@@H]2C(=O)Nc2cccc(F)c2F)c2c(F)cccc21 [Compound 7]
damage to plant (100=total damage to plant; 0=no damage to plant), ABUTH (rate 15): 0
damage to plant (100=total damage to plant; 0=no damage to plant), ABUTH (rate 30): 0
damage to plant (100=total damage to plant; 0=no damage to plant), ABUTH (rate 60): 0
damage to plant (100=total damage to plant; 0=no damage to plant), ABUTH (rate 130): 0
damage to plant (100=total damage to plant; 0=no damage to plant), ABUTH (rate 250): 0
damage to plant (100=total damage to plant; 0=no damage to plant), ABUTH (rate 500): 10
damage to plant (100=total damage to plant; 0=no damage to plant), AMARE (rate 15): 0
damage to plant (100=total damage to plant; 0=no damage to plant), AMARE (rate 30): 0
damage to plant (100=total damage to plant; 0=no damage to plant), AMARE (rate 60): 0
damage to plant (100=total damage to plant; 0=no damage to plant), AMARE (rate 130): 0
damage to plant (100=total damage to plant; 0=no damage to plant), AMARE (rate 250): 0
damage to plant (100=total damage to plant; 0=no damage to plant), AMARE (rate 500): 0
damage to plant (100=total damage to plant; 0=no damage to plant), BIDPI (rate 15): 0
damage to plant (100=total damage to plant; 0=no damage to plant), BIDPI (rate 30): 0
damage to plant (100=total damage to plant; 0=no damage to plant), BIDPI (rate 60): 0
damage to plant (100=total damage to plant; 0=no damage to plant), BIDPI (rate 130): 0
damage to plant (100=total damage to plant; 0=no damage to plant), BIDPI (rate 250): 0
damage to plant (100=total damage to plant; 0=no damage to plant), BIDPI (rate 500): 0
damage to plant (100=total damage to plant; 0=no damage to plant), BRAPL (rate 15): 0
damage to plant (100=total damage to plant; 0=no damage to plant), BRAPL (rate 30): 60
damage to plant (100=total damage to plant; 0=no damage to plant), BRAPL (rate 60): 80
damage to plant (100=total damage to plant; 0=no damage to plant), BRAPL (rate 130): 80
damage to plant (100=total damage to plant; 0=no damage to plant), BRAPL (rate 250): 90
damage to plant (100=total damage to plant; 0=no damage to plant), BRAPL (rate 500): 100
damage to plant (100=total damage to plant; 0=no damage to plant), CYPES (rate 15): 0
damage to plant (100=total damage to plant; 0=no damage to plant), CYPES (rate 30): 0
damage to plant (100=total damage to plant; 0=no damage to plant), CYPES (rate 60): 0
damage to plant (100=total damage to plant; 0=no damage to plant), CYPES (rate 130): 0
damage to plant (100=total damage to plant; 0=no damage to plant), CYPES (rate 250): 0
damage to plant (100=total damage to plant; 0=no damage to plant), CYPES (rate 500): 20
damage to plant (100=total damage to plant; 0=no damage to plant), DIGSA (rate 15): 0
damage to plant (100=total damage to plant; 0=no damage to plant), DIGSA (rate 30): 80
damage to plant (100=total damage to plant; 0=no damage to plant), DIGSA (rate 60): 90
damage to plant (100=total damage to plant; 0=no damage to plant), DIGSA (rate 130): 100
damage to plant (100=total damage to plant; 0=no damage to plant), DIGSA (rate 250): 100
damage to plant (100=total damage to plant; 0=no damage to plant), DIGSA (rate 500): 100
damage to plant (100=total damage to plant; 0=no damage to plant), ECHCG (rate 15): 0
damage to plant (100=total damage to plant; 0=no damage to plant), ECHCG (rate 30): 90
damage to plant (100=total damage to plant; 0=no damage to plant), ECHCG (rate 60): 90
damage to plant (100=total damage to plant; 0=no damage to plant), ECHCG (rate 130): 100
damage to plant (100=total damage to plant; 0=no damage to plant), ECHCG (rate 250): 100
damage to plant (100=total damage to plant; 0=no damage to plant), ECHCG (rate 500): 100
damage to plant (100=total damage to plant; 0=no damage to plant), ELEIN (rate 15): 0
damage to plant (100=total damage to plant; 0=no damage to plant), ELEIN (rate 30): 0
damage to plant (100=total damage to plant; 0=no damage to plant), ELEIN (rate 60): 10
damage to plant (100=total damage to plant; 0=no damage to plant), ELEIN (rate 130): 60
damage to plant (100=total damage to plant; 0=no damage to plant), ELEIN (rate 250): 50
damage to plant (100=total damage to plant; 0=no damage to plant), ELEIN (rate 500): 70
damage to plant (100=total damage to plant; 0=no damage to plant), EPHHL (rate 15): 0
damage to plant (100=total damage to plant; 0=no damage to plant), EPHHL (rate 30): 0
damage to plant (100=total damage to plant; 0=no damage to plant), EPHHL (rate 60): 0
damage to plant (100=total damage to plant; 0=no damage to plant), EPHHL (rate 250): 10
damage to plant (100=total damage to plant; 0=no damage to plant), EPHHL (rate 500): 40
damage to plant (100=total damage to plant; 0=no damage to plant), GLXMA (rate 15): 0
damage to plant (100=total damage to plant; 0=no damage to plant), GLXMA (rate 30): 0
damage to plant (100=total damage to plant; 0=no damage to plant), GLXMA (rate 60): 0
damage to plant (100=total damage to plant; 0=no damage to plant), GLXMA (rate 130): 0
damage to plant (100=total damage to plant; 0=no damage to plant), GLXMA (rate 250): 0
damage to plant (100=total damage to plant; 0=no damage to plant), GLXMA (rate 500): 0
damage to plant (100=total damage to plant; 0=no damage to plant), IPOHE (rate 15): 0
damage to plant (100=total damage to plant; 0=no damage to plant), IPOHE (rate 30): 0
damage to plant (100=total damage to plant; 0=no damage to plant), IPOHE (rate 60): 0
damage to plant (100=total damage to plant; 0=no damage to plant), IPOHE (rate 130): 0
damage to plant (100=total damage to plant; 0=no damage to plant), IPOHE (rate 250): 0
damage to plant (100=total damage to plant; 0=no damage to plant), IPOHE (rate 500): 0
damage to plant (100=total damage to plant; 0=no damage to plant), ORYSA (rate 15): 0
damage to plant (100=total damage to plant; 0=no damage to plant), ORYSA (rate 30): 0
damage to plant (100=total damage to plant; 0=no damage to plant), ORYSA (rate 60): 0
damage to plant (100=total damage to plant; 0=no damage to plant), ORYSA (rate 130): 0
damage to plant (100=total damage to plant; 0=no damage to plant), ORYSA (rate 250): 0
damage to plant (100=total damage to plant; 0=no damage to plant), ORYSA (rate 500): 0
damage to plant (100=total damage to plant; 0=no damage to plant), PANMI (rate 15): 0
damage to plant (100=total damage to plant; 0=no damage to plant), PANMI (rate 30): 0
damage to plant (100=total damage to plant; 0=no damage to plant), PANMI (rate 60): 0
damage to plant (100=total damage to plant; 0=no damage to plant), PANMI (rate 130): 0
damage to plant (100=total damage to plant; 0=no damage to plant), PANMI (rate 250): 0
damage to plant (100=total damage to plant; 0=no damage to plant), PANMI (rate 500): 20
damage to plant (100=total damage to plant; 0=no damage to plant), SETFA (rate 15): 0
damage to plant (100=total damage to plant; 0=no damage to plant), SETFA (rate 30): 80
damage to plant (100=total damage to plant; 0=no damage to plant), SETFA (rate 60): 80
damage to plant (100=total damage to plant; 0=no damage to plant), SETFA (rate 130): 90
damage to plant (100=total damage to plant; 0=no damage to plant), SETFA (rate 250): 90
damage to plant (100=total damage to plant; 0=no damage to plant), SETFA (rate 500): 100
damage to plant (100=total damage to plant; 0=no damage to plant), SIDSP (rate 15): 0
damage to plant (100=total damage to plant; 0=no damage to plant), SIDSP (rate 30): 0
damage to plant (100=total damage to plant; 0=no damage to plant), SIDSP (rate 60): 0
damage to plant (100=total damage to plant; 0=no damage to plant), SIDSP (rate 130): 0
damage to plant (100=total damage to plant; 0=no damage to plant), SIDSP (rate 250): 0
damage to plant (100=total damage to plant; 0=no damage to plant), SIDSP (rate 500): 10
damage to plant (100=total damage to plant; 0=no damage to plant), SORVU (rate 15): 0
damage to plant (100=total damage to plant; 0=no damage to plant), SORVU (rate 30): 0
damage to plant (100=total damage to plant; 0=no damage to plant), SORVU (rate 60): 0
